Data set [1] can be described thus: in vivo. Particulars: male, RoRo Fuellinsdorf, rat, in vivo; for AUC(0-t): AUC (0-24 h). The protocol: In Example 11, the pharmacokinetics of the compound of Formula I was evaluated following single intravenous, intraperitoneal, and oral administration to rats to compare the oral bioavailability of two different formulations and to measure the brain penetration after intravenous administration.
A solution of the compound of Formula I (4.7 mg/mL) in water and a suspension of the compound of Formula I (5 mg/mL) in SSV (standard suspension vehicle) were prepared.
The experiments were performed in 20 male rats (Strain RoRo Fuellinsdorf, body weight 230-290 g) from Biological Research Laboratories, Fuellinsdorf, Switzerland. The animals were housed under standard laboratory conditions throughout the study period. After an acclimatization period of 3 days, the rats were implanted with chronic jugular catheters under pentobarbital anesthesia. After surgery the rats were on recovery for 2 days before dosing. They had free access to water and food during the experiment.
For the pharmacokinetic studies, 0.4 mL blood samples were collected at different time points, up to 72 hours post-dose, from the jugular vein of the rats via catheter. For the study of brain and CSF penetration, 2 mL blood samples as well as CSF and brain were collected between 0.3 and 2 hours post-dose from one rat at each time point. Collection tubes contained EDTA/NAF as anticoagulant and stabilizer, respectively. After centrifugation, plasma was removed. Plasma, CSF and brain samples were stored deep-frozen at approximately −20° C. until analysis using a specific LC-MS method.
Aliquots of plasma samples of 40 μL were mixed with 50 μL buffer pH 9, 50 μL of a Formula I internal standard (1 μg/mL 1-chlorobutane) and 250 μL butylacetate and then shaken for 10 min. After centrifugation, 200 μL of the supernatant were evaporated to dryness at 45° C. under a stream of nitrogen. The residue was reconstituted with 200 μL acetonitrile/1% formic acid in water (30/70, v/v). An aliquot of 30 μL was injected onto an analytical column (Waters, Symmetry C8, 2.1×150 mm, 5 μm).
The sample passed to the ion-spray interface of the single quadrupole mass spectrometer. Selected ion monitoring mode (SIM) was used for mass spectrometric detection. Quantification was based on peak area ratios and calibration curve established by weighted (1/x^2) linear regression. The calibration curve was established between 5 and 5000 ng/mL using dog plasma as matrix. Data acquisition and integration of SIM chromatograms were performed using MacQuan (version 1.6) from Perkin-Elmer Sciex.
The pharmacokinetic parameters were estimated by non-compartmental analysis, using the pharmacokinetic evaluation program WinNOnlin [1]. AUC(0-inf) was calculated applying the linear trapezoidal rule and extrapolation to infinity using the apparent elimination rate constant λz and the calculated concentration at the last measurable time point. AUClast values were calculated by linear trapezoidal rule from time zero to time of last measureable time point. Cmax, C(t), and Tmax were determined directly from the plasma concentration-time profiles. The apparent terminal half-life (T1/2) was derived from the equation: T1/2=ln2/λz. Means of the half-life were calculated by harmonic means. Plasma clearance, CL, was calculated as D/AUC(0-inf.). Volume of distribution, Vz, was calculated as CL/λz. The absolute bioavailability was calculated from plasma concentration data as follows: […]
A solution of Formula I (hydrochloride salt) was administered intravenously at a dose of 9.4 mg/kg to 2 male rats in two subsequent experiments. In both studies, blood samples were obtained at 0.083, 0.25, 0.5, 1, 2, 4, 6, 8, and 24 h after intravenous application and in addition at 48 and 72 h in the study.

Data set [2] is described as follows: Brain and CSF penetration after intravenous administration in rats. The class given is in vivo. To be noted: male, RoRo Fuellinsdorf, rat, brain homogenate / plasma, i.v., approximately 0.25, 0.5, 1 and 2 h, read-out: ratios of brain homogenate/plasma concentrations. The protocol: After centrifugation, plasma was removed.
The frozen half brain was weighed. After thawing, the tissue was suspended in a 2 mL eppendorf polypropylene tube with 2 volumes of sterile apyrogen and cold NaCl (+4° C.; 0.9% solution) (0.333 g brain/mL NaCl). The tissue was homogenized (ice bath) using a Vibra-Cell ultrasonic processor (Sonics & Material, Inc. Danbury, CT-USA) for 2×10 s (amplitude: 60, energy: 25). An aliquot of the resulting brain homogenate (40 μL) was used for extraction as described for plasma. 50 μL CSF with 50 μL plasma were used for extraction as described under plasma sample preparation.
Brains were taken at approximately 0.25, 0.5, 1 and 2 h after intravenous administration of Formula I into the tail vein of 8 rats (2 rats per time point). For all time points, the concentrations were higher in the brain than in the plasma, with ratios of brain homogenate/plasma concentrations of 2.4 to 4.9. The CSF was taken at the same time points and analyzed but the concentrations were low (4.9 to 16 ng/mL or below 4 ng/mL), possibly due to the high plasma protein binding.

For data set [3], the system named is rat plasma proteins. The data set is described as follows: Binding to rat plasma proteins. In kind it is in vitro ADME.

Each structure is given as a SMILES string.

On to `Cc1ccccc1-c1cc(N2CCN(C)CC2)ncc1N(C)C(=O)C(C)(C)c1cc(C(F)(F)F)cc(C(F)(F)F)c1` [Formula I, 2-(3,5-bis(trifluoromethyl)phenyl)-N,2-dimethyl-N-(6-(4-methylpiperazin-1-yl)-4-(o-tolyl)pyridin-3-yl)propanamide], for which the “AUC (0-24 h)” value in data set [1] (ip, 9.4 mg/kg) stood at 19900 ng·h/mL; in data set [1] (iv, 9.4 mg/kg), 24400 ng·h/mL; in data set [1] (po, 9.4 mg/kg) it was 12600 ng·h/mL. In addition, the Cmax (as a rule, the highest concentration seen after dosing) turned out to be 1730 ng/mL in data set [1] (ip, 9.4 mg/kg); 1610 ng/mL in data set [1] (ip, 9.4 mg/kg, Cmax); 682 ng/mL in data set [1] (po, 9.4 mg/kg); 991 ng/mL in data set [1] (po, 9.4 mg/kg, Cmax). Also, the time of peak concentration (Tmax) (as a rule, the time from dosing to the highest level) was 0.25 h in data set [1] (ip, 9.4 mg/kg); no more than 0.25 h in data set [1] (ip, 9.4 mg/kg, Tmax); 4 h in data set [1] (po, 9.4 mg/kg); 2 h in data set [1] (po, 9.4 mg/kg, Tmax). Besides, the AUC(0-t) – broadly, the area under the concentration-time curve up to a stated or last time point – in data set [1] (ip, 9.4 mg/kg) worked out at 26800 ng·h/mL; in data set [1] (iv, 9.4 mg/kg), 29200 ng·h/mL; in data set [1] (po, 9.4 mg/kg) it was 15000 ng·h/mL. Besides, the Vd (as a rule, the apparent volume that relates the amount in the body to the concentration in plasma or blood) in data set [1] (iv) was found to be 12 L/kg. For the same molecule, in data set [1] (iv), the clearance (in general, a measure of how efficiently the substance is removed, as volume per time) turned out to be 6 mL/min/kg. Besides, the half-life (usually how long it takes for the measured level to halve) in data set [1] (iv, 9.4 mg/kg, mean apparent terminal half-life) is 19.5 h; in data set [1] (po, 9.4 mg/kg, T1/2), 17.7 h. Further, the T1/2 in data set [1] (po, 9.4 mg/kg) turned out to be 18.9 h. The Kp in data set [2] was in the range of 2.4 to 4.9. Further, the “binding to rat plasma proteins” value in data set [3] is reported as 99.8%.

Source of the values: patent US10676440B2, “Crystalline forms of an NK-1 antagonist” (Helsinn Healthcare SA, priority 2014, dated 2020).
